According to patent US9861702B2, “Lipid-conjugated rhamnose for immune system recruitment and oncotherapy” (WISCONSIN ALUMNI RESEARCH FOUNDATION, priority 2012, dated 2018):
“Also recorded” adds a separate entry of the source. Like-named read-outs stand apart in the source and are kept apart here.

Legend:
[1] = system: M21 cells; experiment: Fluorescent lipid insertion levels, quantitative flow cytometry with calibration beads; format: cell-based
Text: FIG. 5 is a graph showing the results of flow cytometry measurements to assess the levels of insertion of fluorescent lipid conjugates into M21 cells. See Example 4 and Scheme 6 for details. Under the treatment conditions used, insertion levels of approximately 3×10^6 lipids per cell was achieved. All three fluorescent labeled lipids inserted robustly into the cell membrane.
To estimate lipid insertion levels into model cells, three fluorescent lipid derivatives were synthesized: 101 an Alexa-Fluor® 488 dye conjugated to cholesterol, 102 Alexa-Fluor® 488 dye (Life Technologies) conjugated to POPE and 103 an Alexa-Fluor® 488 dye conjugated to DPoPE. M21 cells were treated with these lipids and assessed by quantitative flow cytometry using calibration beads to determine the number of fluorophores per cell. The results are illustrated in FIG. 5.

[2] = system: M21 cells; format: cell-based; details: normal donor serum, FIG. 9
Description: The requisite amount of chloroform solution containing each lipid compound was measured into a glass vial. Chloroform was removed by blowing argon into the vial until all solvent was evaporated leaving a lipid film on the glass. The lipid film was hydrated with sufficient buffer (HBSS with 1% BSA) to yield a 0.1 mM solution for 30 minutes at room temperature. The vials were then sonicated in a water bath sonicator to cause the lipids to sheet off of the glass. It is believed that the lipids form vesicle structures in the buffer.
M21 cells were plated in a 12-well plate and allowed to grow over night. The next morning, the growth medium was removed and replaced with 0.5 mL of buffer (control) or lipid suspension. Cells were incubated in contact with lipids for 1 hour at 37° C. to allow for lipid insertion. The lipid suspension was then aspirated and cells were striped from the plate with 1 mM EDTA in PBS pH 7.4. The EDTA/cell suspensions were diluted ˜1:1 with HBSS/BSA buffer, spun down and resuspended at 500,000 cells mL^−1. Cell samples where CD55 and CD59 were to remain functional were diluted 1:1 in HBSS/BSA buffer. Cell samples in which complement inhibitory factors were to be blocked were diluted 1:1 with HBSS/BSA containing 20 μg/mL of each blocking antibody (anti-CD55: clone 143-30 from Southern Biotech, anti-CD59: clone MEM-43 from Novus Biologicals) for a final concentration of 10 μg/mL of each antibody.
Cell suspensions (50 μL) were added to an opaque white 96-well plate in sextuplicate. […] (See plate illustration FIG. 7.) The plate was incubated at 37° C. for two hours to allow for complement activation and cell killing. After 2 hours, the plate was removed from the incubator and allowed to come to room temperature. […] Luminescence was read on a Tecan M1000 plate reader.
Luminescence values were averaged for each set of triplicate wells. Since luminescence correlates to viable cells and the heat killed serum wells provide a measure of non-specific cell death, the fraction of viable cells for each condition is calculated as (avg. luminescencenormal serum)/(avg. luminescenceheat killed serum). […]
FIG. 9 is a graph presenting results in terms of % viable cells for an experiment conducted with M21 cells as noted above which compared treatment of cells with lipid alone serum alone (negative control) (DPoPE), lipid+addition of CD55 and CD59 blocking antibodies, Rha2-lipid 51, Rha2-lipid 51+CD55 and CD59 blocking antibodies, 14.18-IL2 antibody (positive control), and 14.18-IL@antibody+CD55 and CD59 blocking antibodies. […] Cell Titer-Glo® assay (Promega) was used to measure living cells, Viability=(luminescence in wells treated with normal serum)/(luminescence of wells treated with heat inactivated serum).

[3] = system: complement component C4d; experiment: Activation of complement, deposition of complement component C4d on treated M21 cells, flow cytometry; format: cell-based; details: 25% normal human serum, 1 hour at 37° C.
Description: FIG. 6 is a graph showing the results of flow cytometry measurements of M21 cells treated with the indicated rhamnose-lipid conjugates, or with an antibody known to activate complement (14.18) exposed to normal human serum and subsequently stained for C4d, a marker of complement activation.
Rhamnose-lipid conjugates 4 (Rha1-DPoPE) and 51 (Rha2-DPoPE) were synthesized as described in Example 1. The ability of these compounds to activate complement was tested by looking for deposition of complement component C4d. M21 cells treated with buffer, rha1-DPoPE, rha2-DPoPE, or a control antibody known to activate complement (14.18) were exposed to 25% normal human serum for 1 hour at 37° C., washed and stained for C4d, and analyzed by flow cytometry. […] The 14.18 antibody employed was the Ch14.18-IL2 fusion protein [Gillies, S D; Lan, Y; Lo, K M; Super, M; Wesolowski, J (1999) “Improving the efficacy of antibody-interleukin 2 fusion proteins by reducing their interaction with Fc receptors.” Cancer Research vol. 59 (9) p. 2159-66.]

[4] = system: M21 cells; experiment: Chromium-51 release assay (CDC / ADCC); format: cell-based
Description: Experiments were performed using the art-recognized Chromium-51 (^51Cr) release assay to assess if Rha2-lipid conjugate 51 was capable of activating cellular responses ADCC.
M21 cells were treated with lipid as described in Example 6. Target cells are labeled with ^51Cr and the release of label is a measure of cell cytolysis. In this case, the cells were contacted with Na^51Cr label overnight which is somewhat longer than is typically employed in the assay.
This confirms results from Example 6 that Rha2-DPoPE was able to mediate CDC. Peripheral blood mononuclear cells (PBMCs) include immune effector cells some of which express CD16, the most important class of which is natural killer cells.

[5] = system: antibodies in human serum; experiment: Stability of antigen-antibody complexes in serum, SPR loss of response units over 1 hour; format: binding; details: over one hour, corrected RU
Description: FIG. 3 also includes a Table showing percentage loss calculated as (RUT2)/RuT1. All RU were corrected by reference subtraction.
The relative stability of antigen-antibody complexes for DNP, αGal and Rha in serum was assessed by evaluating RU (corrected RU) as a function of time (over 1 hour). FIG. 3 illustrates the decay of RU with time for antigen-antibody complexes for the three antigens. Due to the complexity of these systems, exact kinetic parameters could not be determined; however the loss of response units over time provides an estimate rank ordering of dissociation rates and complex longevity.

[6] = system: antibodies in human serum; experiment: Biosensor (SPR) analysis of antibody levels in human serum against immobilized biotinylated antigens; format: binding; details: 10% serum, after 5 minutes of serum exposure, biotinylated antigen on streptavidin chip
Text: Biosensor analysis was used to evaluate levels of antibodies in human serum. Surface plasmon resonance (SPR) is an information-rich technique requiring only small amounts of material, and surfaces with immobilized compounds can be regenerated and used multiple times. Although this technique is most often associated with determination of kinetic parameters, it is also useful for rank ordering interactions with ligands and antibody characterization, and is compatible with serum. […] The biotinylated antigens were immobilized on streptavidin-coated sensor chips along with a biotinylated control peptide in a reference channel. Serum was collected from healthy volunteer donors under IRB-approved Human Subjects minimal risk protocol M-2005-1282 at the University of Wisconsin-Madison. To limit bulk refractive index changes and keep signal within the instrument's detection range, solutions of 10% serum were flowed across the chip, contacting antigens in this order: […] As a measure of antibody prevalence, corrected response units (RUantigen-RUreference) bound to each flow channel were compared after 5 minutes of serum exposure; more RU indicated greater antibody binding and therefore, a higher titer. […] Antibodies to rhamnose were further assessed with ELISA assays using immobilized rhamnose-BSA.

[7] = system: M21 cells; experiment: DNP-lipid insertion into cell membranes, anti-DNP staining, flow cytometry; format: cell-based; details: M21 cells treated with DNP-lipid, stained with anti-DNP
Text: FIG. 4 is a graph showing the results of flow cytometry measurement of M21 cells treated with or without DNP-lipid and stained with anti-DNP. DNP-lipid 100 (Avanti Polar Lipids, Alabaster, Ala.) was used for the experiment.
As an initial assessment of antigen-lipid insertion into cell membranes, a hapten-lipid conjugate, DNP-lipid (100, a dipalmitoleoyl phosphatidylethanolamine-DNP conjugate) and anti-DNP-antibody were used to determine if (1) lipids would insert into model M21 cell line and (2) if the antigen headgroups of the antigen-lipid conjugates would remain accessible to antibodies. M21 cells treated with the DNP-lipid followed by staining with anti-DNP were analyzed by flow cytometry (FIG. 4).

[8] = plus CD55 and CD59 blocking antibodies 10 μg/mL each

Q: Which “insertion into cell membranes, copy numbers (fluorophores per cell)” value [1] does the source give for `CC(C)CCC[C@@H](C)[C@H]1CC[C@H]2[C@@H]3CC=C4C[C@H](OC(=O)NCCOCCOCCNC(=O)c5cccc(-c6c7ccc(=N)c(S(=O)(=O)O)c-7oc7c(S(=O)(=O)O)c(N)ccc67)c5C(=O)O)CC[C@]4(C)[C@H]3CC[C@]12C` [Compound 101] here?
A: around 3×10^6

Q: For `CCCCCC/C=C\CCCCCCCC(=O)OC[C@H](COP(=O)(O)OCCN)OC(=O)CCCCCCC/C=C\CCCCCC` [DPoPE, 1,2-dipalmitoleoyl-sn-glycero-3-phosphoethanolamine], which “% viability” value ([2]; CD55 and CD59 functional) is on record?
A: remain equally viable

Q: What about the “% viability” value [2, 8] of the same compound?
A: slight negative impact on cell survival

Q: Which results are given for `CCCCCC/C=C\CCCCCCCC(=O)OC[C@H](COP(=O)(O)OCCN(CCCCO[C@@H]1OC(C)[C@H](O)[C@H](O)C1O)CCCCO[C@@H]1OC(C)[C@H](O)[C@H](O)C1O)OC(=O)CCCCCCC/C=C\CCCCCC` (some centres unmarked) [Compound 51, Rha2-DPoPE]?
A: % viability ([2]; CD55 and CD59 functional): large decrease in viability; % viability [2, 8]: significantly amplified; complement activation (C4d staining) [3]: more efficient; 51Cr release (cytotoxicity, CDC) ([4]; serum alone, FIG. 10 left bar): Cr-51 was released; 51Cr release (cytotoxicity) ([4]; serum with PBMCs added, FIG. 10 right bar): cytotoxicity increased

Q: With `O=[N+]([O-])c1ccc(O)c([N+](=O)[O-])c1` [DNP, 2,4-dinitrophenol] as the compound, how does the “loss of binding signal (response units) of antigen-antibody complex over time” value (shortened to “loss of binding signal … over time”) [5] read?
A: signal loss was greater

Q: For rhamnose, which “loss of binding signal … over time” value [5] is on record?
A: affinity advantage over those of both αGal and DNP

Q: And the “antibody prevalence (corrected response units bound, RUantigen-RUreference)” value [6]?
A: more prevalent than those recognizing αGal in all cases; also recorded: equivalent or better to those recognizing DNP in most cases

Q: How did the “loss of binding signal … over time” value [5] turn out when `OC[C@H]1O[C@H](O[C@H]2[C@@H](O)[C@@H](CO)OC(O)[C@@H]2O)[C@H](O)[C@@H](O)[C@H]1O` (stereo partly drawn) [αGal, Gal-α-1,3-Gal] was run?
A: signal loss was greater

Q: How did the “anti-DNP staining shift (membrane insertion, antigen head group accessibility)” value [7] turn out when `CCCCCCCCCCCCCCCC(=O)OC[C@H](COP(=O)(O)OCCNC(=O)CCCCCNc1ccc([N+](=O)[O-])cc1[N+](=O)[O-])OC(=O)CCCCCCCCCCCCCCC.N` [DNP-lipid] was run?
A: positive shift

Q: `CCCCCC/C=C\CCCCCCCC(=O)OC[C@H](COP(=O)(O)OCCNCCCCO[C@@H]1OC(C)[C@H](O)[C@H](O)C1O)OC(=O)CCCCCCC/C=C\CCCCCC` (some centres unmarked) [Compound 4, Rha1-DPoPE] was tested. Which “complement activation (C4d staining)” value [3] did it give?
A: activated complement
